Data from patent US11925690B2, “Bifunctional molecules for targeting Rpn11” (AMPHISTA THERAPEUTICS LTD, priority 2018, dated 2024).

Columns and labels:
HEK293 cells = test: Unbiased whole proteome analysis by TMT-labelling MS; assay type: cell-based; conditions: HEK293, 1 μM, 4 h, n=3
Method: HEK293 (2.2×10 6) cells were seeded in 10 cm plates (10 mL medium) overnight before treatment with 1 μM compound for a final DMSO concentration of 0.1% v/v. After 4 h incubation time, cells were washed with 2× with DPBS (Gibco) and lysed using 500 μL lysis buffer (100 mM Tris, 4% (w/v) SDS, pH 8.0) supplemented with cOmplete Mini EDTA-free protease inhibitor cocktail (Roche) and benzonase. Lysates were briefly sonicated (2×10 s), clarified by centrifugation (20000 g, 10 min, 4° C.) and the total protein content of the supernatant was quantified using a BCA assay (Thermo Fisher Scientific).
Sample processing, digestion, desalting, labelling, and fractionation were performed at Fingerprint Proteomics (University of Dundee) as described previously [Gadd et al. 10.1038/nchembio.2329]. FIG. 7 depicts fold change of abundance of 7882 proteins comparing 11JQ15 to DMSO treatment (left) and comparing 1 μM 11JQ17 to DMSO treatment (right), as well as their respective p-values (t-test; n=3).

[1] = test system: Brd4, c-MYC, cleaved PARP (C-PARP); test: Immunoblot of Brd4, c-MYC and cleaved PARP in MV4-11 cells; assay type: cell-based
Method: MV4-11 (0.7×10^6 cells/mL) were seeded in 10 cm plates (10 mL DMEM supplemented with 10% FBS and L-glutamine) overnight before treatment with compounds at the desired concentration and with a final DMSO concentration of 0.1% v/v. After 6 h incubation time, cells were washed with 2× with DPBS (Gibco) and lysed using 85 μL RIPA buffer (Sigma-Aldrich) supplemented with cOmplete Mini EDTA-free protease inhibitor cocktail (Roche) and benzonase. Lysates were clarified by centrifugation (20000 g, 10 min, 4° C.) and the total protein content of the supernatant was quantified using a Bradford colorimetric assay. Samples were prepared using equal amounts of total protein and LDS sample buffer (Invitrogen). For immunoblot analysis, the following antibodies were used: anti-Brd4 (ab128874, 1:1,000 dilution), anti-cmyc (ab32072, 1:1000 dilution), anti-CPARP (CST-9541T, 1:1,000 dilution), and anti-Tubulin hFAB-rhodamine (BioRad, 12004166, 1:10000 dilution).

[2] = MV4-11, increasing concentrations, 6 h

Compound | fold change of abundance of 7882 proteins vs DMSO (FIG. 7) (HEK293 cells) | increase in C-PARP compared with JQ1 and 11JQ18 ([1]; MV4-11, 6 h) | Brd4 and c-MYC levels (FIG. 9) [1, 2] | cleaved PARP (FIG. 9) [1, 2]
Cc1sc2c(c1C)C(c1ccc(Cl)cc1)=N[C@@H](CC(=O)NCCOCCNC(=O)c1cc(SC(=O)c3ccccc3)c3ncc(C(=O)NCCc4nccs4)cc3c1)c1nnc(C)n1-2 [Example 11JQ15] | selective degradation of Brd2, Brd3 and Brd4 |  |  | 
Cc1sc2c(c1C)C(c1ccc(Cl)cc1)=N[C@@H](CC(=O)NCCCCNC(=O)c1cc(SC(=O)c3ccccc3)c3ncc(C(=O)NCCc4nccs4)cc3c1)c1nnc(C)n1-2 [Example 11JQ16] |  | significantly greater than inhibitor (JQ1) alone and the negative control (11JQ18) | depletion of Brd4 and c-MYC levels | corresponding increase in cleaved PARP
